Data as given in ChEMBL document CHEMBL4422673, “Discovery, synthesis and characterization of a series of (1-alkyl-3-methyl-1H-pyrazol-5-yl)-2-(5-aryl-2H-tetrazol-2-yl)acetamides as novel GIRK1/2 potassium channel activators” (Bioorg Med Chem Lett, 2019).
Active and inactive are the calls of the source. The calls are words filed in the database; no cut-off is given here.

Experiments:
Kir3.1/Kir3.2 [1] = target: T1, Kir3.1/Kir3.2 (Homo sapiens, UniProt P48549+P48051); experiment: (§1) Activation of human GIRK1/2 expressed in HEK293 cells co-expressing rat mGlu8 by thallium flux assay; type: cell-based; conditions: hek293
T1 sequence (P48549 whole entry): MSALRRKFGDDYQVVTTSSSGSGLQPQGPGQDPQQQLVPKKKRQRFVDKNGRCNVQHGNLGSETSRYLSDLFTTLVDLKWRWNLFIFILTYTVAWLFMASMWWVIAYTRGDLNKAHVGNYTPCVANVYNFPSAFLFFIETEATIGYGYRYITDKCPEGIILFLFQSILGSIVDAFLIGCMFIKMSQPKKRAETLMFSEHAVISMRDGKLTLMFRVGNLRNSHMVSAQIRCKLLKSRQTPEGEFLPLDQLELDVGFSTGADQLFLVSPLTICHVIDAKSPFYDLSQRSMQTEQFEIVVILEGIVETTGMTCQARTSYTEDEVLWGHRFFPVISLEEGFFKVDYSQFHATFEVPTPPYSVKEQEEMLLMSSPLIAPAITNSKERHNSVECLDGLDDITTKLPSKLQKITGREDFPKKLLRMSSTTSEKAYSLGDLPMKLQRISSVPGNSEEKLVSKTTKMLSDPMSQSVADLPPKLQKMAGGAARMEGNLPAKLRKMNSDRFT
T1 sequence (P48051 whole entry): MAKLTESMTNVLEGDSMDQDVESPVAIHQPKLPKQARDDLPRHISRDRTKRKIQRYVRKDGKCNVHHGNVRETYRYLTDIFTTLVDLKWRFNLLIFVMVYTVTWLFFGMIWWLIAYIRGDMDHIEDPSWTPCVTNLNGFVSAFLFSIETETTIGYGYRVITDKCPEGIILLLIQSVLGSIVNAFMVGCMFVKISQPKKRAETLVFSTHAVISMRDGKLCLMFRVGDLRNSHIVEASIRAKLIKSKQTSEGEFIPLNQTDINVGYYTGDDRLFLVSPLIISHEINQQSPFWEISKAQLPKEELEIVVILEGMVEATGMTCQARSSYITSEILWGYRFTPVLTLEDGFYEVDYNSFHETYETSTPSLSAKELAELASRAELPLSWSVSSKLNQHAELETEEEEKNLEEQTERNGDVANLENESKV

[2] = target: T2, Kir3.1/Kir3.2 (Homo sapiens) (UniProt P48549+P48051); experiment: Activation of human GIRK1/2 expressed in HEK293 cells co-expressing rat mGlu8 by thallium flux assay relative to control; type: cell-based
Kir3.1/Kir3.4 [3] = target: T3, Kir3.1/Kir3.4 (Homo sapiens, UniProt P48549+P48544); experiment: (§2) Activation of human GIRK1/4 expressed in HEK293 cells co-expressing rat mGlu8 by thallium flux assay; type: cell-based; conditions: hek293
T3 sequence (P48549 whole entry): T1 sequence (P48549 whole entry)
T3 sequence (P48544 whole entry): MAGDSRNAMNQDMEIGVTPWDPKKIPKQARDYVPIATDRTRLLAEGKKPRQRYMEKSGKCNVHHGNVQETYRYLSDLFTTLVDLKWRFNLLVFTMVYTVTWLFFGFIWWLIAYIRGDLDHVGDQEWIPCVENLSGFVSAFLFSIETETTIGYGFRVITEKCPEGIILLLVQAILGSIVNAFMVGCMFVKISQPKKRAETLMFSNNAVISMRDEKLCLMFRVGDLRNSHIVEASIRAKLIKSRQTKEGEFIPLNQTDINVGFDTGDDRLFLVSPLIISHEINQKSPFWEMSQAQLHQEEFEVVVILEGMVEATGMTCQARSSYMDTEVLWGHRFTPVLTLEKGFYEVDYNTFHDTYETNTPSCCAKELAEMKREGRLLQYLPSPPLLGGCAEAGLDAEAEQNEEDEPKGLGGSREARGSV

[4] = target: Kir3.1/Kir3.4 (Homo sapiens) (UniProt P48549+P48544); experiment: Activation of human GIRK1/4 expressed in HEK293 cells co-expressing rat mGlu8 by thallium flux assay relative to control; type: cell-based
Kir3.1/Kir3.2 [5] = target: T4, Kir3.1/Kir3.2 (Homo sapiens, UniProt P48051+P48549); experiment: as §1; type: cell-based
T4 sequence (P48549 whole entry): T1 sequence (P48549 whole entry)
T4 sequence (P48051 whole entry): T1 sequence (P48051 whole entry)

[6] = Fraction unbound in human plasma; type: ADME, cell-free
Kir3.1/Kir3.4 [7] = target: T5, Kir3.1/Kir3.4 (Homo sapiens, UniProt P48544+P48549); experiment: as §2; type: cell-based
T5 sequence (P48549 whole entry): T1 sequence (P48549 whole entry)
T5 sequence (P48544 whole entry): T3 sequence (P48544 whole entry)

[8] = Stability in mouse plasma; type: ADME, cell-free
[9] = Clearance in human liver microsomes
[10] = Clearance in mouse liver microsomes
Homo sapiens = species: Homo sapiens; experiment: Ratio of EC50 for activation of human GIRK1/4 expressed in HEK293 cells co-expressing rat mGlu8 by thallium flux assay to EC50 for Activation of human GIRK1/2 expressed in HEK293 cells co-expressing rat mGlu8 by thallium flux assay; type: cell-based
[11] = Extraction ratio in human liver S9 fraction; type: ADME, subcellular; conditions: read-out: ERH
[12] = Half life in human liver S9 fraction; type: ADME, subcellular
[13] = target: T2, Kir3.1/Kir3.2 (Homo sapiens); experiment: as §1; type: cell-based

Row | Structure (SMILES) | EC50 (Kir3.1/Kir3.2 [1]) | Emax [2] | EC50 (Kir3.1/Kir3.4 [3]) | Emax [4] | EC50 (Kir3.1/Kir3.2 [5]) | Fu [6] | EC50 (Kir3.1/Kir3.4 [7]) | Stability [8] | CLhep predicted [9] | CLhep predicted [10] | hepatic extraction ratio [11] | t1/2 [12] | Activity [13] | Ratio EC50 (Homo sapiens)
1 | Cc1cc(NC(=O)Cn2nnc(-c3cccc(Cl)c3)n2)n(C2CCCCC2)n1 |  | 89% |  | 66% | 300 nM |  | 662 nM |  |  |  |  |  |  | 3 to 5
2 | Cc1cc(NC(=O)Cn2nnc(-c3ccc(Cl)c(Cl)c3)n2)n(C2CCCCC2)n1 |  | 84% |  | 70% | 1220 nM | < 0.3% | 2200 nM | Unstable | 17.4 mL/min/kg | 76 mL/min/kg |  |  |  | 3 to 5
3 | Cc1cc(NC(=O)Cn2nnc(-c3cccc(F)c3)n2)n(C2CCCCC2)n1 |  | 96% |  | 80% |  | 1% |  | Unstable | 17.8 mL/min/kg | 87.1 mL/min/kg |  |  |  | 3 to 5
4 | Cc1cc(NC(=O)Cn2nnc(-c3ccc(F)c(F)c3)n2)n(C2CCCCC2)n1 |  | 93% |  | 79% | 116 nM |  | 392 nM |  |  |  |  |  |  | 3 to 5
5 | Cc1nc(NC(=O)Cn2nnc(-c3ccccc3)n2)n(-c2ccccc2)n1 | Not Active | inactive | Not Active | inactive |  |  |  |  |  |  |  |  |  | 
6 | Cc1cc(NC(=O)Cn2nncc2-c2ccccc2)n(C2CCCCC2)n1 |  | 87% |  | 49% | 375 nM | 0.4% | 1030 nM | Unstable | 18.3 mL/min/kg | 87.7 mL/min/kg |  |  |  | 
7 | O=C(Cn1nnc(-c2ccccc2)n1)Nc1ccccn1 | Not Active | inactive | Not Active | inactive |  |  |  |  |  |  |  |  |  | 
8 | Cc1cc(NC(=O)Cn2cc(-c3ccccc3)nn2)n(C2CCCCC2)n1 |  | 87% |  | 76% | 116 nM | 3% | 412 nM | Unstable | 14.6 mL/min/kg | 78.2 mL/min/kg |  |  |  | 

Now from value to molecule, other results behind:

Row | EC50 (Kir3.1/Kir3.2 [1]) | Emax [2] | EC50 (Kir3.1/Kir3.4 [3]) | Emax [4] | EC50 (Kir3.1/Kir3.2 [5]) | Fu [6] | EC50 (Kir3.1/Kir3.4 [7]) | Stability [8] | CLhep predicted [9] | CLhep predicted [10] | hepatic extraction ratio [11] | t1/2 [12] | Activity [13] | Structure (SMILES) | Ratio EC50 (Homo sapiens)
9 | Not Active | inactive | Not Active | inactive |  |  |  |  |  |  |  |  |  | O=C(Cn1nnc(-c2ccccc2)n1)Nc1cc(C2(C(F)(F)F)CC2)nn1C1CCCCC1 | 
10 | Not Active | inactive | Not Active | inactive |  |  |  |  |  |  |  |  |  | Cc1nc(-c2ccccc2)c(NC(=O)Cn2nnc(-c3ccccc3)n2)s1 | 
11 |  | 68% |  | 52% | 84 nM | 1.5% | 383 nM | Unstable | 15.9 mL/min/kg | 80 mL/min/kg |  |  |  | Cc1cc(NC(=O)Cn2nnc(-c3ccccc3)n2)n(C2CCC(F)(F)CC2)n1 | 
12 |  | 92% |  | 63% | 96 nM | 1.1% | 259 nM | Unstable | 18.9 mL/min/kg | 87 mL/min/kg |  |  |  | Cc1cc(NC(=O)Cn2nnc(-c3ccccc3)n2)n(C2CCCCC2)n1 | 3
13 |  | 93% |  | 75% | 1030 nM | 3.7% | 2170 nM | Unstable |  |  | < 0.05 | 10.79 h |  | Cc1cc(NC(=O)Cn2nnc(-c3ccccc3)n2)n(C2CCS(=O)(=O)C2)n1 (centres undefined) | 
14 |  |  |  |  |  |  |  |  |  |  |  |  | inactive | Cc1cc(N(C)C(=O)Cn2nnc(-c3ccccc3)n2)n(C2CCCCC2)n1 | 
